Assay results: PMC6901909, “Synergy Pattern of Short Cationic Antimicrobial Peptides Against Multidrug-Resistant Pseudomonas aeruginosa” (Frontiers in Microbiology, 2019)
Values after ≈ are worked out from the molar mass of the structure shown. Peptide text beside a SMILES is read from it.

Legend:
Test in all cases: microbe, parasite or virus in culture
Type in all cases: cell-based, Pseudomonas aeruginosa
[1] = system: MDR P. aeruginosa PA253; conditions: MDR PA253, 18 h
Experimental: (§1) We selected six different P. aeruginosa isolates that were described as MDR and had been isolated from clinical and municipal waste water ([Schwartz et al., 2006]). The minimal inhibitory concentration (MIC) was determined in a microdilution assay using Mueller-Hinton (MH) broth following a previously published protocol ([Wiegand et al., 2008]). Briefly, a twofold serial dilution of the antibiotics and peptides were prepared and added to a bacteria solution, resulting in 2–5 10^5 CFU/ml. The microtiter plates (polypropylene, Corning) were incubated for 18 h at 37°C and MICs were taken visually.

[2] = system: MDR P. aeruginosa PA 919; conditions: MDR PA 919, 18 h
Experimental: as §1

[3] = system: MDR P. aeruginosa PA 910; conditions: MDR PA 910, 18 h
Experimental: as §1

[4] = system: P. aeruginosa PA01-wt; conditions: -wt, 18 h
Experimental: as §1

Structure (SMILES) | MIC against MDR isolates of PA, PA253 [1] [µM] | MIC against MDR isolates of PA, PA919 [2] [µM] | MIC against PA910 in μM (peptides, Table 4) [3] [µM] | MIC against PA01 wt [4] [µM] | MIC against MDR isolates of PA, PA910 [3] [µM]
CC[C@H](C)[C@H](N)C(=O)N[C@@H](CC(C)C)C(=O)N[C@@H](CCCCN)C(=O)N[C@@H](Cc1c[nH]c2ccccc12)C(=O)N[C@@H](CCCCN)C(=O)N[C@@H](CCCNC(=N)N)C(=O)N[C@@H](CCCCN)C(=O)N[C@@H](Cc1c[nH]c2ccccc12)C(=O)N[C@@H](Cc1c[nH]c2ccccc12)C(=O)N[C@@H](CCCCN)C(=O)N[C@@H](Cc1c[nH]c2ccccc12)C(=O)N[C@@H](Cc1ccccc1)C(=O)N[C@@H](CCCNC(=N)N)C(N)=O [Indopt 7] (H-ILKWKRKWWKWFR-NH2) | 8 | 32 | 4 (≈ 7.84 µg/mL) | 2 (≈ 3.92 µg/mL) | 
CC[C@H](C)[C@H](N)C(=O)N[C@@H](CC(C)C)C(=O)N[C@@H](CCCCN)C(=O)N[C@@H](Cc1c[nH]c2ccccc12)C(=O)N[C@@H](CCCCN)C(=O)N[C@H](C(=O)N[C@@H](Cc1ccccc1)C(=O)N[C@@H](CCCCN)C(=O)N[C@@H](Cc1c[nH]c2ccccc12)C(=O)N[C@@H](CCCCN)C(=O)N[C@@H](Cc1c[nH]c2ccccc12)C(=O)N[C@@H](Cc1ccccc1)C(=O)N[C@@H](CCCNC(=N)N)C(N)=O)[C@@H](C)CC [Indopt 10] (H-ILKWKIFKWKWFR-NH2) | 8 to 16 | 32 | 4 (≈ 7.51 µg/mL) | 2 (≈ 3.76 µg/mL) | 
CC[C@H](C)[C@H](N)C(=O)N[C@@H](CC(C)C)C(=O)N[C@@H](CCCCN)C(=O)N[C@@H](Cc1c[nH]c2ccccc12)C(=O)N[C@@H](CCCCN)C(=O)N[C@@H](CCSC)C(=O)N[C@@H](Cc1ccccc1)C(=O)N[C@@H](CCCCN)C(=O)N[C@@H](Cc1c[nH]c2ccccc12)C(=O)N[C@@H](CCCCN)C(=O)N[C@@H](Cc1c[nH]c2ccccc12)C(=O)N[C@@H](Cc1ccccc1)C(=O)N[C@@H](CCCNC(=N)N)C(N)=O [Indopt 12] (H-ILKWKMFKWKWFR-NH2) | 16 | 16 | 4 (≈ 7.59 µg/mL) | 2 (≈ 3.79 µg/mL) | 
CC(C)[C@H](NC(=O)[C@H](Cc1c[nH]c2ccccc12)NC(=O)[C@H](CCCNC(=N)N)NC(=O)[C@H](Cc1c[nH]c2ccccc12)NC(=O)[C@H](Cc1c[nH]c2ccccc12)NC(=O)[C@H](CCCNC(=N)N)NC(=O)[C@@H](N)CCCNC(=N)N)C(=O)N[C@H](C(=O)N[C@@H](Cc1c[nH]c2ccccc12)C(N)=O)C(C)C [LOP2] (H-RRWWRWVVW-NH2) | 8 | 2 | 8 (≈ 11.4 µg/mL) | 4 (≈ 5.71 µg/mL) | 
CC[C@H](C)[C@H](NC(=O)[C@H](CCCNC(=N)N)NC(=O)[C@H](Cc1c[nH]c2ccccc12)NC(=O)[C@H](CCCNC(=N)N)NC(=O)[C@H](CCCNC(=N)N)NC(=O)[C@@H](N)CCCCN)C(=O)N[C@@H](Cc1c[nH]c2ccccc12)C(=O)N[C@@H](CC(C)C)C(=O)N[C@H](C(N)=O)C(C)C [LOP3] (H-KRRWRIWLV-NH2) | 4 to 8 | 4 | 8 (≈ 10.5 µg/mL) | 4 (≈ 5.25 µg/mL) | 
CC[C@H](C)[C@H](NC(=O)[C@@H](NC(=O)[C@H](CCCNC(=N)N)NC(=O)[C@H](Cc1c[nH]c2ccccc12)NC(=O)[C@H](CCCNC(=N)N)NC(=O)[C@@H](N)CCCNC(=N)N)C(C)C)C(=O)N[C@H](C(=O)N[C@@H](CCCCN)C(=O)N[C@@H](Cc1c[nH]c2ccccc12)C(N)=O)C(C)C [LOP4] (H-RRWRVIVKW-NH2) | 8 | 4 | 4 (≈ 5.19 µg/mL) | 4 (≈ 5.19 µg/mL) | 
CC[C@H](C)[C@H](NC(=O)[C@H](Cc1c[nH]c2ccccc12)NC(=O)[C@H](CCCCN)NC(=O)[C@H](CCCCN)NC(=O)[C@H](CC(C)C)NC(=O)[C@H](Cc1c[nH]c2ccccc12)NC(=O)[C@H](CCCCN)NC(=O)[C@@H](N)Cc1c[nH]c2ccccc12)C(=O)N[C@@H](CCCCN)C(N)=O [LOP5] (H-WKWLKKWIK-NH2) | 8 | 8 | 8 (≈ 10.5 µg/mL) | 4 (≈ 5.26 µg/mL) | 
CC[C@H](C)[C@H](NC(=O)[C@H](CCCNC(=N)N)NC(=O)[C@H](CCCNC(=N)N)NC(=O)[C@H](CC(C)C)NC(=O)[C@@H](N)CCCNC(=N)N)C(=O)N[C@H](C(=O)N[C@H](C(=O)N[C@H](C(=O)N[C@@H](CCCNC(=N)N)C(=O)N[C@H](C(=O)N[C@@H](C)C(=O)N[C@@H](CCCNC(=N)N)C(N)=O)C(C)C)[C@@H](C)CC)C(C)C)C(C)C [Peptide R3] (H-RLRRIVVIRVAR-NH2) | 16 | 16 | 32 (≈ 48.2 µg/mL) | 16 (≈ 24.1 µg/mL) | 
CC[C@H](C)[C@H](NC(=O)[C@H](CCCNC(=N)N)NC(=O)[C@H](C)NC(=O)[C@H](CC(C)C)NC(=O)[C@@H](N)CCCNC(=N)N)C(=O)N[C@H](C(=O)N[C@H](C(=O)N[C@H](C(=O)N[C@@H](CCCNC(=N)N)C(=O)N[C@@H](Cc1c[nH]c2ccccc12)C(=O)N[C@@H](C)C(=O)N[C@@H](CCCNC(=N)N)C(N)=O)[C@@H](C)CC)C(C)C)C(C)C [Peptide W10] (H-RLARIVVIRWAR-NH2) | 16 | 16 |  | 16 (≈ 24.1 µg/mL) | 16
